The results in this text go back to patent publication US11197904B2, “Pharmaceutical compositions for preventions and managements of dementia, infectious diseases, cancers, periodontitis, dental caries, diabetes, obesity, osteoporosis and chronic pain and methods thereof” (Chung Shan Medical University, priority 2018, dated 2021).

By IC50 is commonly meant the concentration that inhibits the measured activity by half.

Assay [1] concerns Porphyromonas gingivalis (P.g.).
The subject of assay [2] is Lactobacillus reuteri (L.r.). In words: Proliferation of the probiotic Lactobacillus reuteri (OD600). It counts as cell-based. Conditions: 3 to 10 times higher than the listed IC50; Table 1.
For assay [3], the system named is Staphylococcus aureus (S.a).
Assay [4] deals with Streptococcus mutans (S.m., UA159).
Assay [5] has as its system Pseudomonas aeruginosa (P.a.).
The mark [6] stands for this setting: read-out: IC50, P. g., metals alone.
[7] abbreviates: read-out: IC50, S. a., metals alone.
Where [8] appears, read: read-out: IC50, UA159, metals alone.
The mark [9] stands for this setting: read-out: IC50, P. a., metals alone.

Where two headings read alike, the source gives them in different places. Marks after values point to notes of the source that are not given here.

Turning to `N.N.N.N.N.N.N.N.N.N.N.N.N.N.[Cl-].[Cl-].[Cl-].[Cl-].[Cl-].[Cl-].[O-2].[O-2].[Ru+3].[Ru+3].[Ru+4]` [Ruthenium red], the concentration for half-maximal inhibition (IC50) is 74 µM in assay [1] (setting [6]), more than 116 µM in assay [3] (setting [7]), 644 µM in assay [4] (setting [8]) and 32 µM in assay [5] (setting [9]). Besides, the “Inhibition on proliferation of Lactobacillus reuteri” value (“Inhibition on proliferation” below) in assay [2] is recorded as “RuR*,”.
Turning to `[Cl][Ag]` [AgCl], the IC50 in assay [1] (setting [6]) was found to be 14 µM; in assay [1] (read-out: IC50 of single drug, Table 14, P. g., drug alone), 14 µM; in assay [3] (setting [7]), 28 µM; in assay [3] (read-out: IC50 of single drug, Table 14, S. a., drug alone) it was 56 µM; in assay [4] (setting [8]), 35 µM; in assay [4] (read-out: IC50 of single drug, Table 14, UA159, drug alone), 35 µM. Further, the IC50 in assay [5] (setting [9]) came to 44 µM; in assay [5] (read-out: IC50 of single drug, Table 14, P. a., drug alone), 42 µM. The “Inhibition on proliferation” value in assay [2] was “AgCl*”.
`[Cl-].[Cl-].[Sr+2]` [SrCl2]: the IC50 was more than 3000 µM in assay [1] (setting [6]), 3590 µM in assay [3] (setting [7]), more than 3000 µM in assay [4] (setting [8]) and 4190 µM in assay [5] (setting [9]). The “Inhibition on proliferation” value in assay [2] is “SrCl2*”.
On to `O=S(=O)([O-])[O-].[Zn+2]` [ZnSO4], for which the IC50 turned out to be 1060 µM in assay [1] (setting [6]), 939 µM in assay [3] (setting [7]), 961 µM in assay [4] (setting [8]) and 1160 µM in assay [5] (setting [9]). For the same compound, the “Inhibition on proliferation” value in assay [2] is listed as “ZnSO4*”.
As for `[Cl][Mn][Cl]` [MnCl2], the IC50 in assay [1] (setting [6]) is 990 µM; in assay [3] (setting [7]), 2740 µM; in assay [4] (setting [8]) it was 1440 µM; in assay [5] (setting [9]), more than 2000 µM. Also, the “Inhibition on proliferation” value in assay [2] is reported as “MnCl2*”.
